What was measured:
[1] = pKa of amine lipid by TNS fluorescence; type: physicochemical; details: probe TNS (6-(p-toluidino)-2-naphthalenesulfonic acid sodium salt), unformulated amine lipid in ethanol, sodium phosphate buffers -9.0
Method: The pKa of each amine lipid was determined according to the method in Jayaraman, et al. (Angewandte Chemie, 2012) with the following adaptations. The pKa was determined for unformulated amine lipid in ethanol. Lipid stock solutions (2.94 mM) were diluted into Sodium Phosphate Buffers (0.1 M, Boston Bioproducts) of different pH (pH-range: 4.5-9.0) yielding a final lipid concentration of approx. 100 μM. The test samples were supplemented with TNS {6-(p-Toluidino)-2-naphthalenesulfonic acid sodium salt}, incubated and the fluorescence intensity was measured using excitation and emission wavelengths of 321 nm and 448 nm, respectively. The recorded data were normalized and the respective pKa values were derived from sigmoidal fitting.

[2] = LNP average particle size and polydispersity by dynamic light scattering; type: physicochemical; details: LNP with the compound as amine lipid
Excerpt: The LNPs have a size of about 1 to about 1,000 nm, about 10 to about 500 nm, about 20 to about 500 nm, in a sub-embodiment about 50 to about 400 nm, in a sub-embodiment about 50 to about 300 nm, in a sub-embodiment about 50 to about 200 nm, and in a sub-embodiment about 50 to about 150 nm, and in another sub-embodiment about 60 to about 120 nm. Preferably, the LNPs have a size from about 60 nm to about 100 nm. The average sizes (diameters) of the fully formed LNP, may be measured by dynamic light scattering on a Malvern Zetasizer. The LNP sample is diluted in phosphate buffered saline (PBS) so that the count rate is approximately 200-400 kcps. The data is presented as a weighted average of the intensity measure.
In some embodiments, the LNPs have a size of about 75 to about 120 nm. In some embodiments, the LNPs have a size of about 75 to about 100 nm. Unless indicated otherwise, all sizes referred to herein are the average sizes (diameters) of the fully formed nanoparticles, as measured by dynamic light scattering on a Malvern Zetasizer. The nanoparticle sample is diluted in phosphate buffered saline (PBS) so that the count rate is approximately 200-400 kcps. The data is presented as a weighted-average of the intensity measure (Z-average diameter).
Dynamic Light Scattering (“DLS”) is used to characterize the polydispersity index (“pdi”) and size of the LNPs of the present disclosure. DLS measures the scattering of light that results from subjecting a sample to a light source. PDI, as determined from DLS measurements, represents the distribution of particle size (around the mean particle size) in a population, with a perfectly uniform population having a PDI of zero. Electropheretic light scattering is used to characterize the surface charge of the LNP at a specified pH. The surface charge, or the zeta potential, is a measure of the magnitude of electrostatic repulsion/attraction between particles in the LNP suspension. Asymmetric-Flow Field Flow Fractionation—Multi-Angle Light Scattering (AF4-MALS) is used to separate particles in the composition by hydrodynamic radius and then measure the molecular weights, hydrodynamic radii and root mean square radii of the fractionated particles. […] Nanoparticle tracking analysis (NTA, Malvern Nanosight) can be used to determine particle size distribution as well as particle concentration. LNP samples are diluted appropriately and injected onto a microscope slide. A camera records the scattered light as the particles are slowly infused through field of view. After the movie is captured, the Nanoparticle Tracking Analysis processes the movie by tracking pixels and calculating a diffusion coefficient. This diffusion coefficient can be translated into the hydrodynamic radius of the particle. The instrument also counts the number of individual particles counted in the analysis to give particle concentration.
LNP compositions are analyzed for average particle size, polydispersity index (pdi), total RNA content, encapsulation efficiency of RNA, and zeta potential. LNP compositions may be further characterized by lipid analysis, AF4-MALS, NTA, and/or cryo-EM. Average particle size and polydispersity are measured by dynamic light scattering (DLS) using a Malvern Zetasizer DLS instrument. LNP samples were diluted with PBS buffer prior to being measured by DLS. Z-average diameter which is an intensity-based measurement of average particle size was reported along with number average diameter and pdi. A Malvern Zetasizer instrument is also used to measure the zeta potential of the LNP. Samples are diluted 1:17 (50 μL into 800 μL) in 0.1×PBS, pH 7.4 prior to measurement.

[3] = RNA encapsulation efficiency of LNP (Ribogreen fluorescence assay); type: physicochemical; details: LNP with the compound as amine lipid
Method: A fluorescence-based assay (Ribogreen®, ThermoFisher Scientific) is used to determine total RNA concentration and free RNA. Encapsulation efficiency is calculated as (Total RNA—Free RNA)/Total RNA. LNP samples are diluted appropriately with 1× TE buffer containing 0.2% Triton-X 100 to determine total RNA or 1× TE buffer to determine free RNA. Standard curves are prepared by utilizing the starting RNA solution used to make the compositions and diluted in 1× TE buffer+/−0.2% Triton-X 100. Diluted RiboGreen® dye (according to the manufacturer's instructions) is then added to each of the standards and samples and allowed to incubate for approximately 10 minutes at room temperature, in the absence of light. A SpectraMax M5 Microplate Reader (Molecular Devices) is used to read the samples with excitation, auto cutoff and emission wavelengths set to 488 nm, 515 nm, and 525 nm respectively. Total RNA and free RNA are determined from the appropriate standard curves.
Encapsulation efficiency is calculated as (Total RNA−Free RNA)/Total RNA. The same procedure may be used for determining the encapsulation efficiency of a DNA-based cargo component. For single-strand DNA, Oligreen Dye may be used and for double-strand DNA, Picogreen Dye.

mouse TTR = assay: Serum TTR ELISA in mice after LNP delivery; type: in vivo; details: mouse serum, relative to TSS control of same experiment
Method: For studies measuring in vivo editing in liver, CD-1 female mice were dosed at 0.1 mpk unless otherwise noted. Animals were euthanized at 6 or 7 days by exsanguinationvia cardiac puncture under isoflourane anesthesia. Liver tissue was collected from each animal for DNA extraction and analysis. Blood was collected into serum separator tubes or into tubes containing buffered sodium citrate for plasma as described herein. Cohorts of mice were measured for editing by Next-Generation Sequencing (NGS).
Blood was collected and the serum was isolated as indicated. The total mouse TTR serum levels were determined using a Mouse Prealbumin (Transthyretin) ELISA Kit (Aviva Systems Biology, Cat. OKIA00111). Briefly, sera were serial diluted with kit sample diluent, e.g. to a final dilution of 10,000-fold and/or 2,500-fold. The diluted sample was then added to the ELISA plates and the assay was then carried out according to directions. Serum TTR data from treatment groups are expressed as a percentage of vehicle control levels.

[4] = Expt. 2, composition ratio (mol %) 50/9/39.5/3 for Cmpnd 49, 50/9/39.5/1.5 for the others
[5] = Expt. 8, composition ratio (mol %) 50/9/38/3 for Cmpnd 49, 50/10/38.5/1.5 for the others
[6] = Expt. 1, composition ratio (mol %) 50/9/38/3 for Cmpnd 49, 50/10/38.5/1.5 for the others
[7] = Expt. 6, composition ratio (mol %) 50/9/38/3 for Cmpnd 49, 50/10/38.5/1.5 for the others
[8] = Expt. 10, composition ratio (mol %) 50/9/38/3 for Cmpnd 49, 50/10/38.5/1.5 for the others

pKa [1] | Num Ave Size (nm) [2, 6] [nm] | PDI [2, 6] | Z-Ave Size (nm) [2, 6] [nm] | Encapsulation (%) [3, 6] [%] | Structure (SMILES) | Serum TTR % TSS (mouse TTR; dose 0.03 mpk) [% TSS] | Serum TTR % TSS (mouse TTR; dose 0.1 mpk) [% TSS] | also measured
5.8 |  |  |  |  | CCCCC/C=C\C/C=C\CCCCCCCC(=O)OCC(COC(=O)CCCCCCC/C=C\C/C=C\CCCCC)OC(=O)CCC(CCCCCCCC)OC(=O)NCCN1CCCCC1 (stereo not shown) [Compound 94, 2-((4-(((2-(piperidin-1-yl)ethyl)carbamoyl)oxy)dodecanoyl)oxy)propane-1,3-diyl (9Z,9′Z,12Z,12′Z)-bis(octadeca-9,12-dienoate)] |  |  | Num Ave Size (nm) [2, 8]: 53 nm; PDI [2, 8]: 0.06; Z-Ave Size (nm) [2, 8]: 70 nm; Encapsulation (%) [3, 8]: 98%
5.96 |  |  |  |  | CCCCC/C=C\C/C=C\CCCCCCCC(=O)OCC(COC(=O)CCCCCCC/C=C\C/C=C\CCCCC)COC(=O)C(C)(C)C(CCCCCCCC)OC(=O)NCCN(C)CC (stereo not shown) [Compound 99, 2-(4,4,11-trimethyl-5-octyl-3,7-dioxo-2,6-dioxa-8,11-diazatridecyl)propane-1,3-diyl (9Z,9′Z,12Z,12′Z)-bis(octadeca-9,12-dienoate)] | 92.42 | 42.87 | 

The remaining lines, values behind:

Structure (SMILES) | pKa [1] | Num Ave Size (nm) [2, 6] [nm] | PDI [2, 6] | Z-Ave Size (nm) [2, 6] [nm] | Encapsulation (%) [3, 6] [%] | Serum TTR % TSS (mouse TTR; dose 0.03 mpk) [% TSS] | Serum TTR % TSS (mouse TTR; dose 0.1 mpk) [% TSS] | also measured
CCCCC/C=C\C/C=C\CCCCCCCC(=O)OCC(COC(=O)CCCCCCC/C=C\C/C=C\CCCCC)OC(=O)CCC(CCCCCC)OC(=O)NCC1CCCN1C (stereo not shown) [Compound 44, 2-((4-((((1-methylpyrrolidin-2-yl)methyl)carbamoyl)oxy)decanoyl)oxy)propane-1,3-diyl (9Z,9′Z,12Z,12′Z)-bis(octadeca-9,12-dienoate)] | 6.45 |  |  |  |  | 119.97 | 78.79 | Num Ave Size (nm) [2, 4]: 78.34 nm; PDI [2, 4]: 0.034; Z-Ave Size (nm) [2, 4]: 97.65 nm; Num Ave Size (nm) [2, 5]: 85.76 nm; PDI [2, 5]: 0.034; Z-Ave Size (nm) [2, 5]: 104.3 nm; Encapsulation (%) [3, 4]: 99%; Encapsulation (%) [3, 5]: 99%
CCCCC/C=C\C/C=C\CCCCCCCC(=O)OCC(COC(=O)CCCCCCC/C=C\C/C=C\CCCCC)OC(=O)CC(CCCCCCCC)OC(=O)NCCN(C)CC (stereo not shown) [Compound 52, 2-((3-(((2-(ethyl(methyl)amino)ethyl)carbamoyl)oxy)undecanoyl)oxy)propane-1,3-diyl (9Z,9′Z,12Z,12′Z)-bis(octadeca-9,12-dienoate)] | 6.26 | 74.35 | 0.03 | 90.75 | 98 |  | 17.31 | 
CCCCC/C=C\C/C=C\CCCCCCCC(=O)OCC(COC(=O)CCCCCCC/C=C\C/C=C\CCCCC)COC(=O)CC(CCCCCCCC)OC(=O)NCCN(C)CC (stereo not shown) [Compound 53, 2-(11-methyl-5-octyl-3,7-dioxo-2,6-dioxa-8,11-diazatridecyl)propane-1,3-diyl (9Z,9′Z,12Z,12′Z)-bis(octadeca-9,12-dienoate)] | 6.29 | 75.76 | 0.05 | 92.99 | 99 |  | 13.97 | 
CCCCC/C=C\C/C=C\CCCCCCCC(=O)OCC(COC(=O)CCCCCCC/C=C\C/C=C\CCCCC)COC(=O)CCCC(CCCCCCCC)OC(=O)NCCN(C)CC (stereo not shown) [Compound 55, 2-(13-methyl-7-octyl-3,9-dioxo-2,8-dioxa-10,13-diazapentadecyl)propane-1,3-diyl (9Z,9′Z,12Z,12′Z)-bis(octadeca-9,12-dienoate)] | 6.43 | 99.29 | 0.02 | 117.30 | 97 |  | 72.79 | 
CCCCCCCCCCOC(=O)CCCCCCCC(=O)OCC(COC(=O)CCCCCCCC(=O)OCCCCCCCCCC)OC(=O)CCC(CCCCCCCC)OC(=O)NCCN(C)CC (stereo not shown) [Compound 57, 9,9′-didecyl O′1,O1-(2-((4-(((2-(ethyl(methyl)amino)ethyl)carbamoyl)oxy)dodecanoyl)oxy)propane-1,3-diyl) di(nonanedioate)] | 6.18 | 83.73 | 0.02 | 100.40 | 98 |  | 24.58 | 
CCCCC/C=C\C/C=C\CCCCCCCC(=O)OCC(COC(=O)CCCCCCC/C=C\C/C=C\CCCCC)OC(=O)CC[C@@H](CCCCCCCC)OC(=O)NCCN(C)CC [Compound 87, 2-(((R)-4-(((2-(ethyl(methyl)amino)ethyl)carbamoyl)oxy)dodecanoyl)oxy)propane-1,3-diyl (9Z,9′Z,12Z,12′Z)-bis(octadeca-9,12-dienoate)] |  |  |  |  |  | 80.21 | 33.33 | Num Ave Size (nm) [2, 7]: 63 nm; PDI [2, 7]: 0.06; Z-Ave Size (nm) [2, 7]: 83.00 nm; Encapsulation (%) [3, 7]: 98%
CCCCC/C=C\C/C=C\CCCCCCCC(=O)OCC(COC(=O)CCCCCCC/C=C\C/C=C\CCCCC)OC(=O)CC[C@H](CCCCCCCC)OC(=O)NCCN(C)CC [Compound 88, 2-(((S)-4-(((2-(ethyl(methyl)amino)ethyl)carbamoyl)oxy)dodecanoyl)oxy)propane-1,3-diyl (9Z,9′Z,12Z,12′Z)-bis(octadeca-9,12-dienoate)] |  |  |  |  |  | 75.06 | 33.45 | Num Ave Size (nm) [2, 7]: 73 nm; PDI [2, 7]: 0.02; Z-Ave Size (nm) [2, 7]: 88.00 nm; Encapsulation (%) [3, 7]: 98%

From patent publication US12077483B2, “Modified amine lipids” (Intellia Therapeutics, Inc., priority 2018, dated 2024)
